Article PMC6278656, “Synthesis and Biological Evaluation of Phaeosphaeride A Derivatives as Antitumor Agents” (Molecules, 2018)

Columns and labels:
[1] = tested on: human breast cancer MCF-7 cells; assay: MTT cytotoxicity assay, MCF-7; assay type: cell-based; details: MCF7, 72 h, n = 3, ± SD, read-out: Adhesive Cell Cultures, IC50 MCF-7
Protocol: (§1) All newly synthesized PPA derivatives 1–8 were evaluated for their anti-proliferative activity against human breast cancer MCF-7, human prostate adenocarcinoma PC-3, human colorectal cancer HCT-116, human lung cancer A549, human chronic myelogenous leukemia K562, human acute monocytic leukemia THP-1, human multiple myeloma RPMI8226, human acute T-cell leukemia Jurkat, human multiple myeloma NCI-H929, and human embryonic fibroblasts HEF cell lines by MTT assays. All cells were incubated with different concentrations of PPA derivatives for 72 h, with etoposide and PPA used as reference compounds. The anticancer activity of the tested compounds was described as the concentration of drug inhibiting 50% cell growth IC50 (Table 1 and Table 2).
(§2) ^1H-NMR spectra were acquired on an AVANCE III 400 MHz NMR spectrometer (Bruker, Rheinstetten, Germany) in CDCl3. Optical rotations were acquired on a Polaar 3005 Polarimeter (Optical Activity, Huntingdon, Great Britain) using a 2.5 cm cell with a Na 589 nm filter and the concentration of samples was denoted as c. Mass spectra data were acquired on a TSQ Quantum Access Max Mass spectrometer (Thermo Fisher Scientific, Waltham, MA, USA). High-resolution mass spectra (HRMS) were acquired on a LTQ Orbitrap Velos spectrometer (Thermo Scientific) and on a Bruker MicrOTOF. FTIR spectra were acquired on an IR Affinity-1 spectrometer (Shimadzu, Thermo Scientific). Organic solvents used were dried by standard methods when necessary. Commercially available reagents were used without further purification. All reactions were monitored by TLC with silica gel coated plates (EMD/Merck KGaA, Darmstadt, Germany), with visualization by UV light and by charring with 0.1% ninhydrin in EtOH. Column chromatography was performed using Merck 60 Å 70–230 mesh silica gel. The optical density was determined using a Multiskan FC spectrophotometer (Thermo Scientific) at a wavelength of 540 nm when using the MTT assay.
(§3) MCF-7 (breast cancer), PC-3 (prostate adenocarcinoma), HCT-116 (colorectal cancer cell), A549 (lung cancer), K562 (chronic myelogenous leukemia), THP-1 (acute monocytic leukemia), and RPMI8226 (multiple myeloma), Jurkat (acute T-cell leukemia), HEF (human embryonic fibroblasts) was purchased from the Russian Academy of Sciences Cells Bank (Institute of Cytology of the Russian Academy of Sciences, Saint Petersburg, Russian Federation). Multiple myeloma cell line NCI-H929 was purchased from ATCC (USA). The MCF-7, A549 and HEF (human embryonic fibroblasts) were cultured in DMEM medium. Other cell lines were cultured in RPMI1640 medium, (PanEco, Russia) supplemented with 10% fetal bovine serum (GE Healthcare LifeSciences, São Paulo, Brazil), and gentamicin at a concentration of 40 μg/mL and cultured at 37 °C in a humidified atmosphere containing 5% CO2. All experiments were performed with cells at passages 3 to 7 in the logarithmic phase of growth.
(§4) Cells were seeded into 96-well plates of 5 × 10^3 for adhesive cultures and 20 × 10^3 for suspension cultures per well in 90 μL and 135 μL of culture medium, respectively. The test substances were dissolved in DMSO to a concentration of 1 × 10^−2 M. For subsequent dilution of the substances, a serum-free culture medium was used as the diluent. Final concentration of DMSO in wells was no more than 1%. […] Substances were added to the cells in 3–4 replicates after 24 h for adhesive cultures and immediately for suspension cultures. 10–15 μL of serum-free medium was added to the control wells with non-exposed cells. Cells were cultured for 72 h at 37 °C in an atmosphere of 5% CO2.

[2] = tested on: human prostate adenocarcinoma PC-3 cells; assay: MTT cytotoxicity assay, PC-3; assay type: cell-based; details: for IC50: Homo sapiens, MTT, 72 h, n = 3, ± SD, read-out: Adhesive Cell Cultures, IC50 PC-3
Protocol: as §1, §2, §3, §4

[3] = tested on: human lung cancer A549 cells; assay: MTT cytotoxicity assay, A549; assay type: cell-based; details: 72 h, n = 3, ± SD, read-out: Adhesive Cell Cultures, IC50 A549
Protocol: as §1, §2, §3, §4

[4] = tested on: human colorectal cancer HCT-116 cells; assay: MTT cytotoxicity assay, HCT-116; assay type: cell-based; details: for IC50: Homo sapiens, MTT, 72 h, n = 3, ± SD, read-out: Adhesive Cell Cultures, IC50 HCT-116
Protocol: as §1, §2, §3, §4

[5] = tested on: human acute monocytic leukemia THP-1 cells; assay: MTT cytotoxicity assay, THP-1; assay type: cell-based; details: 72 h, n = 3, ± SD, read-out: Suspension Cell Cultures, IC50 THP-1
Protocol: as §1, §2, §3, §4

[6] = tested on: human multiple myeloma RPMI8226 cells; assay: MTT cytotoxicity assay, RPMI8226; assay type: cell-based; details: for IC50: Homo sapiens, RPMI-8226, MTT, 72 h, n = 3, ± SD, read-out: Suspension Cell Cultures, IC50 RPMI8228
Protocol: as §1, §2, §3, §4

[7] = tested on: human embryonic fibroblasts HEF; assay: MTT cytotoxicity assay, HEF (control cells); assay type: cell-based; details: Fibroblast, 72 h, n = 3, ± SD, read-out: Adhesive Cell Cultures, IC50 HEF
Protocol: as §1, §2, §3, §4

[8] = tested on: human multiple myeloma NCI-H929 cells; assay: MTT cytotoxicity assay, NCI-H929; assay type: cell-based; details: for IC50: Homo sapiens, MTT, 72 h, n = 3, ± SD, read-out: Suspension Cell Cultures, IC50 NCI-Н929
Protocol: as §1, §2, §3, §4

mice [9] = assay: Acute intraperitoneal toxicity study; assay type: in vivo
Protocol: (§5) Six to eight-week-old outbreed male mice were purchased from the Rappolovo Animal Farm of the Russian Academy of Sciences. Animals were group housed in solid bottom polycarbonate cages (3–5 animals/cage) and provided with sterilized pelleted food and pure water ad libitum.
(§6) Thirty mice were randomly assigned to the acute toxicity study. Animals in experimental groups ([…]) received a dose formulation containing compound 6 solution in 5% DMSO at various dosages (8.25, 82.5 and 200 mg/kg) via single i.p. injection. Mice in the control group treated with vehicle (5% DMSO). The location of the i.p. injection was in the lower left abdominal quadrant. […] After treatments, the following parameters and end points were evaluated for 14 days: mortality, clinical signs, body weight, food consumption, locomotion, salivation, diarrhea, and lethargy. The maximum tolerated dose in this study is defined as the highest dose that will be tolerated and not produce major life-threatening toxicity for the study duration. All experimental procedures were performed according to the principles and guidelines for the care and use of laboratory animals. The animals were sacrificed by carbon dioxide asphyxiation and cervical dislocation. All efforts were made to minimize suffering. Post mortem evaluation included gross examination for all animals at terminal necropsy and calculation of organ mass coefficients. No histopathological examinations were performed.

[10] = Acute intraperitoneal toxicity study; assay type: in vivo; details: male, outbred (printed 'outbreed'), mouse, in vivo, ip, mice, single i.p. injection, 14 days
Protocol: as §5, §6

[11] = tested on: human acute T-cell leukemia Jurkat cells; assay: MTT cytotoxicity assay, Jurkat; assay type: cell-based; details: for IC50: Homo sapiens, MTT, 72 h, n = 3, ± SD, read-out: Suspension Cell Cultures, IC50 Jurkat
Protocol: as §1, §2, §3, §4

[12] = tested on: human chronic myelogenous leukemia K562 cells; assay: MTT cytotoxicity assay, K562; assay type: cell-based; details: for IC50: Homo sapiens, MTT, 72 h, n = 3, ± SD, read-out: Suspension Cell Cultures, IC50 К562
Protocol: as §1, §2, §3, §4

mice [13] = tested on: mice; set-up: method as in RTECS # KC0190000; details: i.p., ref RTECS # KC0190000; cited from earlier work

Structure (SMILES) | IC50 [1] [µM] | IC50 [2] [nM] | IC50 [3] [µM] | IC50 [4] [µM] | IC50 [5] [nM] | IC50 [6] [nM] | IC50 [7] [µM] | IC50 [8] [nM] | IC50 [11] [nM] | IC50 [12] [µM] | other results
C=C1C2=C(C(=O)N1OC)[C@@H](N1CCCC1)[C@@](C)(O)[C@H](CCCCC)O2 [Compound 6, (2S,3R,4R)-3-Hydroxy-6-methoxy-3-methyl-7-methylene-2-pentyl-4-pyrrolidin-1-yl-3,4,6,7-tetrahydro-pyrano[2,3-c]pyrrol-5(2H)-one] | 3.25 ± 0.64 | 200 ± 70 | 10.1 ± 0.5 | 0.47 ± 0.01 | 2050 ± 210 | 630 ± 230 | 4 ± 0.17 | 230 ± 20 | 550 ± 290 | 0.54 ± 0.03 | fold increase in anticancer activity comparative to etoposide [2]: 13.5 fold; fold stronger than the reference compound PPA [2]: 160 fold; fold increase in anticancer activity comparative to etoposide [4]: 47 fold; fold stronger than the reference compound PPA [4]: 51 fold; fold increase in anticancer activity comparative to etoposide ([6]; RPMI8226): 7 fold; fold stronger than the reference compound PPA ([6]; RPMI8226): 14.5 fold; fold increase in anticancer activity comparative to etoposide [8]: 4 fold; fold stronger than the reference compound PPA [8]: 28 fold; toxicity in vivo comparative to etoposide (mice [9]; mice, i.p.): less toxic; effect on mean body weight or mass coefficients (spleen, liver, heart, kidney, lung, thymus, and adrenal) (mice [9]; mouse, in vivo, ip): No effect; gross abnormalities in the organs tested (mice [9]; mouse, in vivo, ip): No gross abnormalities; LD50 at 14 days ([10]; not determined, believed to be more than, read-out: Median lethal dose (LD50)): > 200 mg/kg; MTD at 14 days ([10]; read-out: Maximum tolerated dose): ≥ 82.5 mg/kg; fold increase in anticancer activity comparative to etoposide [11]: 1.5 fold; fold stronger than the reference compound PPA [11]: 17.5 fold; fold increase in anticancer activity comparative to etoposide [12]: 16 fold; fold stronger than the reference compound PPA [12]: 37 fold
COc1cc([C@@H]2c3cc4c(cc3[C@@H](O[C@@H]3O[C@@H]5CO[C@@H](C)O[C@H]5[C@H](O)[C@H]3O)[C@H]3COC(=O)[C@H]23)OCO4)cc(OC)c1O [Etoposide, etoposide, reference compound] | 9.6 ± 0.27 | 2700 ± 50 | > 100 | 22 ± 1.1 | 830 ± 210 | 4600 ± 280 | > 100 | 920 ± 30 | 880 ± 740 | 8.47 ± 0.95 | Intraperitoneal LD50 (mice [13]): 64 mg/kg
